What was measured:
Type in all cases: ADME, organism-based
[1] = Half life in plasma of C57BL/6 mouse at 1 mg/kg, iv and 2 mg/kg, po
[2] = Bioavailability in Sprague-Dawley rat at 1 mg/kg, iv and 2 mg/kg, po; conditions: in vivo
[3] = Half life in plasma of C57BL/6 mouse
[4] = Plasma clearance in Sprague-Dawley rat
[5] = Half life in Sprague-Dawley rat; conditions: in vivo
[6] = Bioavailability in C57BL/6 mouse at 1 mg/kg, iv and 2 mg/kg, po; conditions: in vivo
[7] = Plasma clearance in C57BL/6 mouse

SMILES | half-life [1] | bioavailability [2] | half-life [3] | clearance [4] | half-life [5] | bioavailability [6] | clearance [7]
O=C(CCc1ccc(-c2ccc(O)cc2)cc1)Nc1ccccc1C(=O)O | 2.4 h |  |  |  |  |  | 
C[C@@H]1CCC(C(=O)O)=C(NC(=O)[C@@H](N)Cc2nc(-c3ccc(F)cn3)no2)C1 |  | 81% | 5.6 h | 0.7 mL/min/kg | 5.5 h | 100% | 1.7 mL/min/kg
C[C@@H]1CCC(C(=O)O)=C(NC(=O)CCc2nc(-c3ccc(F)cn3)no2)C1 |  |  | 4.7 h |  |  | 54% | 3.3 mL/min/kg

Results, then the compound that gave them:

half-life [1] | bioavailability [2] | half-life [3] | clearance [4] | half-life [5] | bioavailability [6] | clearance [7] | SMILES
 | 8.1% | 1.4 h | 1 mL/min/kg | 2.2 h |  |  | O=C(CCc1nc(-c2ccc(O)cn2)no1)NC1=C(C(=O)O)CCCC1
 | 2% | 4.5 h | 0.7 mL/min/kg | 2.3 h | 9% | 2.5 mL/min/kg | N[C@@H](Cc1nc(-c2ccc(O)cn2)no1)C(=O)NC1=C(C(=O)O)CCCC1
 |  | 2.64 h |  |  | 7.5% | 9.22 mL/min/kg | C[C@@H]1CCC(C(=O)O)=C(NC(=O)[C@@H](N)Cc2nc(-c3ccc(O)cn3)no2)C1

— ChEMBL document CHEMBL1770132, “The discovery of high affinity agonists of GPR109a with reduced serum shift and improved ADME properties” (Bioorg Med Chem Lett, 2011)
